In the kinase profiling compilation of Christmann-Franck et al. (2016):

Columns and labels:
Assay in all cases: KINOMEscan competition binding
Settings in all cases: compound 10.0 µM
RIOK2 (human) = RIOK2 (human) (UniProt Q9BVS4)
EGFR (human) = EGFR (human) (UniProt P00533)
CDK11B (human) = CDK11B (human) (UniProt P21127)
RPS6KA4 KD1 (human) = RPS6KA4 KD1 (human) (UniProt O75676)
ULK3 (human) = ULK3 (human) (UniProt Q6PHR2)
RIPK2 (human) = RIPK2 (human) (UniProt O43353)
CHUK (human) = CHUK (human) (UniProt O15111)
MET (human) = MET (human) (UniProt P08581)
PAK3 (human) = PAK3 (human) (UniProt O75914)
CAMKK2 (human) = CAMKK2 (human) (UniProt Q96RR4)
LYN (human) = LYN (human) (UniProt P07948)
TNIK (human) = TNIK (human) (UniProt Q9UKE5)
ICK (human) = ICK (human) (UniProt Q9UPZ9)
RPS6KA2 KD2 (human) = RPS6KA2 KD2 (human) (UniProt Q15349)
PRKACB (human) = PRKACB (human) (UniProt P22694)
CDK16 (human) = CDK16 (human) (UniProt Q00536)
CSK (human) = CSK (human) (UniProt P41240)
NLK (human) = NLK (human) (UniProt Q9UBE8)
PRKCH (human) = PRKCH (human) (UniProt P24723)
ROS1 (human) = ROS1 (human) (UniProt P08922)
EPHA7 (human) = EPHA7 (human) (UniProt Q15375)
IRAK1 (human) = IRAK1 (human) (UniProt P51617)
CDC42BPG (human) = CDC42BPG (human) (UniProt Q6DT37)
[1] = biological target: TYK2 JH1 catalytic (human) (UniProt P29597)
[2] = system: EGFR (human), P00533 [752-759 del]
MAP2K5 (human) = MAP2K5 (human) (UniProt Q13163)
WEE2 (human) = WEE2 (human) (UniProt P0C1S8)
RPS6KA3 KD1 (human) = RPS6KA3 KD1 (human) (UniProt P51812)
MTOR (human) = MTOR (human) (UniProt P42345)
CSNK1G3 (human) = CSNK1G3 (human) (UniProt Q9Y6M4)
PIP4K2B (human) = PIP4K2B (human) (UniProt P78356)
PHKG2 (human) = PHKG2 (human) (UniProt P15735)
PAK7 (human) = PAK7 (human) (UniProt Q9P286)
STK11 (human) = STK11 (human) (UniProt Q15831)
PAK1 (human) = PAK1 (human) (UniProt Q13153)
AKT3 (human) = AKT3 (human) (UniProt Q9Y243)
TBK1 (human) = TBK1 (human) (UniProt Q9UHD2)
RPS6KA5 KD1 (human) = RPS6KA5 KD1 (human) (UniProt O75582)
PLK4 (human) = PLK4 (human) (UniProt O00444)
ACVR1 (human) = ACVR1 (human) (UniProt Q04771)

Sequence of PAK3 (human) (O75914 whole entry, looked up): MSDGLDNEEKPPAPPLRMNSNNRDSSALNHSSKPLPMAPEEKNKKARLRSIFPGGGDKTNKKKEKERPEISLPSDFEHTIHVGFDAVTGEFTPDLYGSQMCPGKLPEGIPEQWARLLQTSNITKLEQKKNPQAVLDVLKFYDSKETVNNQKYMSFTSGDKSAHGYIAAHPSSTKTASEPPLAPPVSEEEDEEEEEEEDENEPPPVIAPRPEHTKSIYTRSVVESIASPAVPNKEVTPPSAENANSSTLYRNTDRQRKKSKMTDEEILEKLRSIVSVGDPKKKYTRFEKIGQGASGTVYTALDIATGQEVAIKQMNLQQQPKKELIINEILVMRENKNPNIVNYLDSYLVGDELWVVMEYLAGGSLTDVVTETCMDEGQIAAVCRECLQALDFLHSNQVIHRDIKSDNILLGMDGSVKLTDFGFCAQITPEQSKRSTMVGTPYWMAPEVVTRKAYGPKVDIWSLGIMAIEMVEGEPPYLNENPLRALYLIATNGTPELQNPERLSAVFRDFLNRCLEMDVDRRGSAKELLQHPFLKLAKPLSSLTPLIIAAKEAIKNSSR
Sequence of PIP4K2B (human) (P78356 whole entry, looked up): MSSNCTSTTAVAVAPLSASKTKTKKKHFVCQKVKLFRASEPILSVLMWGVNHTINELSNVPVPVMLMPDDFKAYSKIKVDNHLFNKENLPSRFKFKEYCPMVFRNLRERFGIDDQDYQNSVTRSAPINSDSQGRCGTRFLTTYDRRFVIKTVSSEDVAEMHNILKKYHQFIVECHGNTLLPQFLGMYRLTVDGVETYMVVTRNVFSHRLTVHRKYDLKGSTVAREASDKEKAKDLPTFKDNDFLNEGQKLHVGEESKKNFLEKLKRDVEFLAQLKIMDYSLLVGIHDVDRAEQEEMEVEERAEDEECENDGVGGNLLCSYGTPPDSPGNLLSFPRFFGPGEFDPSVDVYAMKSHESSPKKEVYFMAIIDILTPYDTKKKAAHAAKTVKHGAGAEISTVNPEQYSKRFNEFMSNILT
Sequence of RPS6KA4 KD1 (human) (O75676 whole entry, looked up): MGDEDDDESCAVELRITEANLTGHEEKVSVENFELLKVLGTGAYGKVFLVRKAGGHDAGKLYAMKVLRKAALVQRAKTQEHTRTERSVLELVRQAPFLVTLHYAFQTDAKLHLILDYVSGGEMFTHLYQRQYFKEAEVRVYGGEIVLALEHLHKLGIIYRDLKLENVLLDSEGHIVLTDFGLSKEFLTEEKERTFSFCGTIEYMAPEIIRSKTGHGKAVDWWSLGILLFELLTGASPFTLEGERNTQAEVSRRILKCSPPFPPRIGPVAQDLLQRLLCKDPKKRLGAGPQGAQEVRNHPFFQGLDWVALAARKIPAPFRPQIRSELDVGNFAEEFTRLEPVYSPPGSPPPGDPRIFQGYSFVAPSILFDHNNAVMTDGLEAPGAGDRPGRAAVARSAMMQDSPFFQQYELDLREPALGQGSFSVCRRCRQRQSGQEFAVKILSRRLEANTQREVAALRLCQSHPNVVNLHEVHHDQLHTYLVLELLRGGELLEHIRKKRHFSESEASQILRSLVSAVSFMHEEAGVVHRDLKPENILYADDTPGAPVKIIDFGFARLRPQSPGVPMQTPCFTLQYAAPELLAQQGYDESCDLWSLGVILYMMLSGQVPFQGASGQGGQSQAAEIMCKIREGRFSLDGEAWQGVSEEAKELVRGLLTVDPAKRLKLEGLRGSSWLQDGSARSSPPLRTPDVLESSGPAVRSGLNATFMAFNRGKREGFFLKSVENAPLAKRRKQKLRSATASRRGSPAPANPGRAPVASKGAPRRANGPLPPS
Sequence of EPHA7 (human) (Q15375 whole entry, looked up): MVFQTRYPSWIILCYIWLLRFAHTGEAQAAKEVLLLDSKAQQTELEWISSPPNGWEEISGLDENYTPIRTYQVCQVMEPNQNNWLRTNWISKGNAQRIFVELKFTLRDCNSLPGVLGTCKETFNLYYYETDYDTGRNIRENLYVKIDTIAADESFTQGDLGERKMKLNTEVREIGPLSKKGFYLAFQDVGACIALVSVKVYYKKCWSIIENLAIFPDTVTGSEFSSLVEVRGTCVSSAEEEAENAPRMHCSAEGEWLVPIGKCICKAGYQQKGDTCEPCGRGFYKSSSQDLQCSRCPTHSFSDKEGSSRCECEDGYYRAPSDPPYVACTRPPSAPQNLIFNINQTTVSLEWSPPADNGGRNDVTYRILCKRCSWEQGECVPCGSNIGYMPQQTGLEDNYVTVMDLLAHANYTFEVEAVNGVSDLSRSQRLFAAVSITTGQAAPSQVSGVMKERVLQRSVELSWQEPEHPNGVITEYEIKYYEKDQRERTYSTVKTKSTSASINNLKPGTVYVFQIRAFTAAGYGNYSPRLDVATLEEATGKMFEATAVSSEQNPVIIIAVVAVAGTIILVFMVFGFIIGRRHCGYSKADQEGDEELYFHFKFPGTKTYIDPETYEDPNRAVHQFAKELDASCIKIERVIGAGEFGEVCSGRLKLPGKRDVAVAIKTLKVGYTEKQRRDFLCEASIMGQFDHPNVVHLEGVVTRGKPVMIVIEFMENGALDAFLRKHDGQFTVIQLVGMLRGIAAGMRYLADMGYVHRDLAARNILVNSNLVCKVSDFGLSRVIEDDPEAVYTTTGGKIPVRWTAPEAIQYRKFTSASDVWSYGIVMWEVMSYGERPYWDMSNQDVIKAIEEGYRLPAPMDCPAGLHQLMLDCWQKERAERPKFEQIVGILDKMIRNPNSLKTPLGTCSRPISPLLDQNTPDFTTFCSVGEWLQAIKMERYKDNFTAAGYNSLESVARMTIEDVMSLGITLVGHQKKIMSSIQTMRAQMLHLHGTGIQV
Sequence of CSNK1G3 (human) (Q9Y6M4 whole entry, looked up): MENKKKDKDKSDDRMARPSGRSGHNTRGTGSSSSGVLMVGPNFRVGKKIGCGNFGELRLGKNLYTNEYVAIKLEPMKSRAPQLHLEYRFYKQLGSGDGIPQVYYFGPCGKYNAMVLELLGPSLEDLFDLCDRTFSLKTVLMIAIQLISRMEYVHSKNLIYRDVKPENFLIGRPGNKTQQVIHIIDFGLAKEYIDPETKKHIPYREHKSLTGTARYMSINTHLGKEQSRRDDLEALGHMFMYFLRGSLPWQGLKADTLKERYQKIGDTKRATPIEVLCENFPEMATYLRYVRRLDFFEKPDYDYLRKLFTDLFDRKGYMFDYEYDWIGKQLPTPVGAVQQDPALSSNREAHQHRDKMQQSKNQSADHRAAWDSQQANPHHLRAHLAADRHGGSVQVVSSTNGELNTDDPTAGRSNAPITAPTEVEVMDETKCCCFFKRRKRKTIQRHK
Sequence of PAK7 (human) (Q9P286 whole entry, looked up): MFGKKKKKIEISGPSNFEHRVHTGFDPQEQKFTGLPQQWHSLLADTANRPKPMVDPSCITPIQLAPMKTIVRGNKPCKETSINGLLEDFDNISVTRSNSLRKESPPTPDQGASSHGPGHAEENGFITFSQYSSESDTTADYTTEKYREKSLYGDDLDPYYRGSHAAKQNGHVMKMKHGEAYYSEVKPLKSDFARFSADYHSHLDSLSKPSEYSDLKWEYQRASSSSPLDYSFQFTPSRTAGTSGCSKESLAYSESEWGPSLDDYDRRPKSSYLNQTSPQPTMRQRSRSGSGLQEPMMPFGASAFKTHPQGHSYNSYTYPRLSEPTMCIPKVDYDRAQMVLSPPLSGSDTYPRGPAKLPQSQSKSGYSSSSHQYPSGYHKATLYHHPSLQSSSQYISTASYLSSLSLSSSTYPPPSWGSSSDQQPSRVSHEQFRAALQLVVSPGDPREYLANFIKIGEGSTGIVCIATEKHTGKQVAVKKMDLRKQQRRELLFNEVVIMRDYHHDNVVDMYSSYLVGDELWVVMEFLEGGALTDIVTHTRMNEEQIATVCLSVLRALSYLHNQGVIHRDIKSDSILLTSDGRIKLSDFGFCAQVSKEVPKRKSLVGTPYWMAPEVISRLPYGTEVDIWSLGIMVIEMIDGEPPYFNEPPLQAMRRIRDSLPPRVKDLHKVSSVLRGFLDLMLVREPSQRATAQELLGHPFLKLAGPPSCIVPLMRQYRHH
Sequence of CHUK (human) (O15111 whole entry, looked up): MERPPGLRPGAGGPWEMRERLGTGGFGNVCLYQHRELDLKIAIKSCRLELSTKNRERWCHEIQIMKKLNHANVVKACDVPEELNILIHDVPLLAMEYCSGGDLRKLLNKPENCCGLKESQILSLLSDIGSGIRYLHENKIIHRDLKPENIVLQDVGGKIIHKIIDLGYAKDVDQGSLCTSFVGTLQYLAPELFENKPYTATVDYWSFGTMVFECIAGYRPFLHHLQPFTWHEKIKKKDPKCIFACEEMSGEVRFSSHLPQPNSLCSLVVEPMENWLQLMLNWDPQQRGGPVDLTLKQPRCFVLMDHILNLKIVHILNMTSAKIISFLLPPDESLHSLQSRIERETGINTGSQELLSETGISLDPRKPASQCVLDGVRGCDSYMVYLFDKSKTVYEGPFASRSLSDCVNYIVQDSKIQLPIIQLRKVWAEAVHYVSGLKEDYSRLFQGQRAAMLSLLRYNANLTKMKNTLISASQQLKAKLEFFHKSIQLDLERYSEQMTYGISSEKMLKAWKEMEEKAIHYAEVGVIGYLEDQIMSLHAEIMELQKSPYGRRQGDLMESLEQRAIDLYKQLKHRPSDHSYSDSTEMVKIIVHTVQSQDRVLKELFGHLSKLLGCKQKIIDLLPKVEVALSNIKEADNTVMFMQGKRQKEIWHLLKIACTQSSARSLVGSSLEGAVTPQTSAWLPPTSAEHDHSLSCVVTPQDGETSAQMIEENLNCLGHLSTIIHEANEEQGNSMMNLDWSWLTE

| Compound | kinase still bound, per cent of control (RIOK2 (human)) [%] | kinase still bound, per cent of control (EGFR (human)) [%] | kinase still bound, per cent of control (CDK11B (human)) [%] | kinase still bound, per cent of control (RPS6KA4 KD1 (human)) [%] | kinase still bound, per cent of control (ULK3 (human)) [%] | kinase still bound, per cent of control (RIPK2 (human)) [%] | kinase still bound, per cent of control (CHUK (human)) [%] | kinase still bound, per cent of control (MET (human)) [%] | kinase still bound, per cent of control (PAK3 (human)) [%] | kinase still bound, per cent of control (CAMKK2 (human)) [%] | kinase still bound, per cent of control (LYN (human)) [%] | kinase still bound, per cent of control (TNIK (human)) [%] | kinase still bound, per cent of control (ICK (human)) [%] | kinase still bound, per cent of control (RPS6KA2 KD2 (human)) [%] | kinase still bound, per cent of control (PRKACB (human)) [%] | kinase still bound, per cent of control (CDK16 (human)) [%] | kinase still bound, per cent of control (CSK (human)) [%] | kinase still bound, per cent of control (NLK (human)) [%] | kinase still bound, per cent of control (PRKCH (human)) [%] | kinase still bound, per cent of control (ROS1 (human)) [%] | other results |
| --- | --- | --- | --- | --- | --- | --- | --- | --- | --- | --- | --- | --- | --- | --- | --- | --- | --- | --- | --- | --- | --- |
| O=C(Nc1cccc(Nc2ncc(Br)c(NCCc3cnc[nH]3)n2)c1)N1CCCC1 | 36 | 47 | 66 | 2.1 | 0.1 | 58 | 4.1 | 4.4 | 2.6 | 2 | 24 | 0.8 | 10 | 4.8 | 1 | 40 | 24 | 100 | 33 | 97 | kinase still bound, per cent of control (EPHA7 (human)): 44%; kinase still bound, per cent of control (IRAK1 (human)): 0.25%; kinase still bound, per cent of control (CDC42BPG (human)): 49%; kinase still bound, per cent of control [1]: 0%; kinase still bound, per cent of control [2]: 66%; kinase still bound, per cent of control (MAP2K5 (human)): 0.6%; kinase still bound, per cent of control (WEE2 (human)): 36%; kinase still bound, per cent of control (RPS6KA3 KD1 (human)): 0.5%; kinase still bound, per cent of control (MTOR (human)): 87%; kinase still bound, per cent of control (CSNK1G3 (human)): 88%; kinase still bound, per cent of control (PIP4K2B (human)): 0.55%; kinase still bound, per cent of control (PHKG2 (human)): 8.9%; kinase still bound, per cent of control (PAK7 (human)): 1.6%; kinase still bound, per cent of control (STK11 (human)): 3.2%; kinase still bound, per cent of control (PAK1 (human)): 36%; kinase still bound, per cent of control (AKT3 (human)): 100%; kinase still bound, per cent of control (TBK1 (human)): 0.7%; kinase still bound, per cent of control (RPS6KA5 KD1 (human)): 57%; kinase still bound, per cent of control (PLK4 (human)): 0.7%; kinase still bound, per cent of control (ACVR1 (human)): 76% |
| C=CC(=O)Nc1cc(-n2c(=O)ccc3cnc4ccc(-c5cn[nH]c5)cc4c32)ccc1C | 12 | 30 | 100 | 100 | 97 | 56 | 100 | 89 | 81 | 49 | 100 | 47 | 67 | 92 | 100 | 97 | 100 | 63 | 100 | 100 | kinase still bound, per cent of control (EPHA7 (human)): 99%; kinase still bound, per cent of control (IRAK1 (human)): 41%; kinase still bound, per cent of control (CDC42BPG (human)): 100%; kinase still bound, per cent of control [1]: 29%; kinase still bound, per cent of control [2]: 23%; kinase still bound, per cent of control (MAP2K5 (human)): 0.3%; kinase still bound, per cent of control (WEE2 (human)): 95%; kinase still bound, per cent of control (RPS6KA3 KD1 (human)): 69%; kinase still bound, per cent of control (MTOR (human)): 0%; kinase still bound, per cent of control (CSNK1G3 (human)): 84%; kinase still bound, per cent of control (PIP4K2B (human)): 73%; kinase still bound, per cent of control (PHKG2 (human)): 79%; kinase still bound, per cent of control (PAK7 (human)): 95%; kinase still bound, per cent of control (STK11 (human)): 100%; kinase still bound, per cent of control (PAK1 (human)): 100%; kinase still bound, per cent of control (AKT3 (human)): 100%; kinase still bound, per cent of control (TBK1 (human)): 100%; kinase still bound, per cent of control (RPS6KA5 KD1 (human)): 100%; kinase still bound, per cent of control (PLK4 (human)): 66%; kinase still bound, per cent of control (ACVR1 (human)): 29% |
